In ChEMBL document CHEMBL3507680, “University of Dundee, Gates Library screen for HepG2 cell viability”:

Experiment: Human HepG2 cell viability assay in 384 well format
Format: toxicity, cell-based
Parameters: dose 125 nL, time 70.5 hour; concentration not given beside the values
Settings: HepG2 cells, read-out: Inhibition
With `Cc1ccc2c(c1)C1(CCN(C(=O)C3CC3)CC1)CC2N1CCOCC1` (configuration not stated) the cytotoxicity at 70.5 h was -3.95%. `CO[C@@H]1CN(S(=O)(=O)c2cn(C)cn2)[C@@H]2CCCO[C@@H]21` showed a cytotoxicity at 70.5 h of -4.74%. Work on `Cn1c2c(ccc1=O)CC(Nc1ncc(F)cn1)CC2` (configuration not stated) yielded a cytotoxicity at 70.5 h of -11.5%. For `CN(C)[C@@H]1CN(C(=O)c2ccc(C#N)cc2)[C@@H]2CCCO[C@H]12`, the cytotoxicity at 70.5 h was 3.23%. `CS(=O)(=O)N1Cc2nccn2CC(CNC(=O)c2cccnc2)C1` (configuration not stated) gave a cytotoxicity at 70.5 h of -5.69%. `CCN1CCC12CCN(C(=O)c1ccsc1)C2` (configuration not stated) showed a cytotoxicity at 70.5 h of -12.4%. Compound `Cc1cccc(CN2CC3C[C@]3(NC(=O)c3cccc(F)c3)C2)n1` (some centres not stated) has a cytotoxicity at 70.5 h of -12.2%. Compound `O=C(c1ccncc1F)N1C[C@@H]2OCCN(CC3CC3)[C@@H]2C1` has a cytotoxicity at 70.5 h of -12.9%. Work on `Cc1cc(C(=O)N2C[C@@H]3COC[C@]3(CN(C)C)C2)sc1C` yielded a cytotoxicity at 70.5 h of -11.8%. In the case of `O=C(c1nc2c(o1)CN(CC1CCC1)C2)N1CCCC1`, the cytotoxicity at 70.5 h was 10.5%. For `Cc1nc(CN2C(=O)C[C@@H]3[C@@H]2CCN3CC2CCOCC2)cs1`, the cytotoxicity at 70.5 h was 23.6%. Compound `CN1Cc2c(C(=O)NC3CCCCC3)ncn2-c2ccccc2S1(=O)=O` has a cytotoxicity at 70.5 h of 2.35%. Compound `COC[C@H]1CC[C@@H]2[C@@H](CCN2Cc2ccco2)O1` has a cytotoxicity at 70.5 h of 20.4%. `Cc1cccc(CN2CCc3ncnc(N4CCCC4)c3CC2)n1` gave a cytotoxicity at 70.5 h of -2.78%. Compound `O=C(NC[C@H]1OC[C@@H]2CCN(Cc3ccco3)C[C@@H]21)c1ccnnc1` has a cytotoxicity at 70.5 h of -1.68%. `c1ccc(CN2CCc3ncnc(C4CC4)c3CC2)cc1` gave a cytotoxicity at 70.5 h of 26.7%. `CN1CCN(C(=O)c2ncn3c2CN(C)S(=O)(=O)c2ccccc2-3)CC1` showed a cytotoxicity at 70.5 h of 1.76%. In the case of `CC(C)NC(=O)N1CCCn2cnc(CO)c2C1`, the cytotoxicity at 70.5 h was 6.26%. Compound `CCc1ncnc2c1CCN(Cc1ccc3c(c1)OCO3)CC2` has a cytotoxicity at 70.5 h of 4.52%. Compound `Cc1nc(CN2C(=O)C[C@H]3[C@H]2CCN3CC2CCOC2)cs1` (some centres not stated) has a cytotoxicity at 70.5 h of 2.38%. With `CN(C(=O)c1ncn2c1CN(C)S(=O)(=O)c1ccccc1-2)C1CC1` the cytotoxicity at 70.5 h was -3.76%. `CC(C)C(C)NC(=O)c1ncn2c1CN(C)S(=O)(=O)c1ccccc1-2` (configuration not stated) gave a cytotoxicity at 70.5 h of -2.58%. `Cn1cc(CN2CC[C@H]3O[C@H](C(=O)Nc4cnccn4)CC[C@H]32)cn1` gave a cytotoxicity at 70.5 h of 29.6%. Work on `Cc1nc(CN2C(=O)C[C@H]3[C@H]2CCN3C2CCOC2)cs1` (some centres not stated) yielded a cytotoxicity at 70.5 h of 28.1%. `O=C(COC[C@H]1CC[C@H]2[C@H](CCN2c2ccccn2)O1)N1CCCC1` showed a cytotoxicity at 70.5 h of -111%. Compound `CCS(=O)(=O)N1CCC2(CN(c3ccsc3)C(=O)CN2C)C1` (configuration not stated) has a cytotoxicity at 70.5 h of -124%. In the case of `Cc1cnc(N2CC[C@@H]3OC(COCC(=O)N(C)C)CC[C@@H]32)nc1` (some centres not stated), the cytotoxicity at 70.5 h was -117%. With `c1cnc(NCc2nnn3c2CN(Cc2ccsc2)CCC3)nc1` the cytotoxicity at 70.5 h was -118%. `Cc1nc(CN2CCOCC3(CCN(c4ncccn4)CC3)C2)cs1` gave a cytotoxicity at 70.5 h of -97.5%. Work on `c1cncc(N2CC[C@@H]3CN(CC4CC4)C[C@@H]3C2)c1` yielded a cytotoxicity at 70.5 h of -26.1%. Work on `O=C1COC2(CCN(Cc3ccoc3)CC2)CN1` yielded a cytotoxicity at 70.5 h of -30.5%. Work on `CCOCC1CN(Cc2ccoc2)Cc2nn(C)cc21` (configuration not stated) yielded a cytotoxicity at 70.5 h of -4.9%. Work on `O=C(C1CCOCC1)N1CCO[C@H]2[C@H](OCc3ccncc3)CC[C@@H]21` yielded a cytotoxicity at 70.5 h of -9.92%. `CCN1CC[C@@]2(C(=O)Nc3ccccc3)CCN(S(C)(=O)=O)CC[C@@H]12` gave a cytotoxicity at 70.5 h of -17.9%. Compound `Fc1cccc(O[C@@H]2C[C@H]3CN(Cc4ccccn4)CCN3C2)c1` has a cytotoxicity at 70.5 h of 27.5%. `COc1ncccc1C(=O)N1C[C@@H]2COC[C@]2(CN(C)C)C1` showed a cytotoxicity at 70.5 h of -1.76%. In the case of `Cc1cccc(CN2CC[C@H]3[C@H]2CCN3C(=O)c2cnn(C)c2)n1`, the cytotoxicity at 70.5 h was 2.83%. Compound `Cn1cc(CN2CC[C@@H]3[C@@H](CO[C@H]3CNC(=O)c3ccco3)C2)cn1` has a cytotoxicity at 70.5 h of -3.28%. Compound `Cc1cccc(CN2CC[C@H]3O[C@H](C(=O)Nc4cnccn4)CC[C@H]32)n1` has a cytotoxicity at 70.5 h of 1.13%. `Cc1cccc(CN2CCc3ncnc(NC4CCC4)c3CC2)n1` showed a cytotoxicity at 70.5 h of 5.7%. In the case of `O=c1ccc2c(n1Cc1cccnc1)CCN(Cc1ccoc1)CC2`, the cytotoxicity at 70.5 h was 4.28%. `Cc1nc(CN2CCOCC3(CCN(c4ccccn4)C3)C2)cs1` (configuration not stated) showed a cytotoxicity at 70.5 h of -40.4%. Compound `C1CCN(CCO[C@@H]2CC[C@H]3[C@H]2OCCN3CC2CCOCC2)C1` has a cytotoxicity at 70.5 h of -120%. For `COCC1c2c(cnn2C)CCN1Cc1ccco1` (configuration not stated), the cytotoxicity at 70.5 h was -0.607%. Compound `O=C1COC2(CCN(Cc3ccncc3)CC2)CN1` has a cytotoxicity at 70.5 h of -11.9%. Work on `CN1CCN(C(=O)[C@H]2C[C@@H]3CN(c4ncc(F)cn4)C[C@@H]3N2C)CC1` yielded a cytotoxicity at 70.5 h of -8.27%. `CC(C)N(C)Cc1nnn2c1CN(Cc1cccnc1)CCC2` gave a cytotoxicity at 70.5 h of -101%. `c1cncc(CN2CCCn3nnc(CN4CCCC4)c3C2)c1` gave a cytotoxicity at 70.5 h of -64.2%. In the case of `OCCN1CCC2(CC1)CC(NCc1ccccn1)c1ccccc1O2` (configuration not stated), the cytotoxicity at 70.5 h was -0.919%. For `CC(C)N1CCC2(CC1)CC(NCc1ccccn1)c1ccccc1O2` (configuration not stated), the cytotoxicity at 70.5 h was -0.344%. With `CCN1CCC2(CC1)CC(NCc1cccc(C)n1)c1ccccc1O2` (configuration not stated) the cytotoxicity at 70.5 h was -16.9%. For `CCN1CCC2(CC1)CC(NCc1ccncc1)c1ccccc1O2` (configuration not stated), the cytotoxicity at 70.5 h was -20.8%.
